Laboratory results published in PMC6100259, “Insights into Structure-Activity Relationships of 3-Arylhydrazonoindolin-2-One Derivatives for Their Multitarget Activity on β-Amyloid Aggregation and Neurotoxicity” (Molecules : A Journal of Synthetic Chemistry and Natural …, 2018).
In brackets after ≈: the same amount, converted by molar mass. Like-named read-outs stand apart in the source and are kept apart here.

Assays:
Aβ40 peptide [1] = biological target: T1, Aβ40 peptide (Homo sapiens, UniProt P05067); test: Inhibition of Aβ40 aggregation, ThT fluorescence-based method; format: biochemical
T1 construct: we preferred using Aβ40 peptide
Experimental: In vitro inhibition of Aβ aggregation was assessed through a ThT fluorescence-based method, with the use of 2% 1,1,1,3,3,3-hexafluoroisopropanol (HFIP) as aggregation enhancer. In this medium-throughput assay, we preferred using Aβ40 peptide, being more manageable than Aβ42 and less prone to the formation of preaggregates. Samples of Aβ were co-incubated with test molecules in PBS at 100 µM concentration and the antiaggregating activities were measured after 2 h of incubation at 25 °C. For compounds showing >80% Aβ40 aggregation inhibition, IC50s were determined.
(§1) The spectrofluorimetric assays, measuring ThT fluorescence in the presence of Aβ, were done as previously described. Briefly, coincubation samples were prepared as described above (Section 2.2 and Section 2.3) in 96-well black, non-binding microplates (Greiner Bio-One GmbH, Frickenhausen, Germany). Fluorimetric reads were performed in a multiplate reader Infinite M1000 Pro (Tecan, Cernusco sul Naviglio, Italy). Each concentration point was run in triplicate. CD ellipticity measures were performed as detailed in ref. [20], following the increase of the negative band at 215 nm as indicative of β-sheet arrangement.

[2] = design: method as in PMID 28801274; details: pH 7.4 and 37 °C; cited from earlier work
[3] = Lipophilicity by RP-HPLC (log k'w); format: physicochemical; details: RP-HPLC C18, MeOH/10 mM ammonium formate buffer pH 4.5, extrapolated to 100% aqueous mobile phase, 25 °C
Experimental: To place on a more quantitative basis the above SAR trends, the lipophilicity of a number of isatin arylhydrazone derivatives was measured by an RP-HPLC method. The polycratic capacity factors (log k’w) were determined (details in the Experimental Section). Lipophilicity descriptors (i.e., 1-octanol–water partition coefficients) were also calculated (CLOGPs) using two computational tools (Bio-Loom software, v. 1.7 and ACDLabs software, release 10.0). The ACDLabs software was used also for calculating descriptors of polarizability and size, namely molar refractivity (CMR) and molar volume (MV). The experimental lipophilicity parameters (log k’w), along with CMR and MV, are reported in Table 6 for 18 compounds achieving finite IC50s (<100 µM) in the Aβ aggregation assay.
The lipophilicity parameters were determined by an RP-HPLC technique. Methanol solutions of the investigated hydrazone compounds (0.5 mg/mL) were injected into an Agilent 1260 infinity HPLC system (Agilent Technologies Italia, Milan), equipped with a diode array detector (DAD), and a Phenomenex Kinetex C18 column (150 × 4.6 mm, 5 μ, Phenomenex Italy s.r.l., Castel Maggiore, BO, Italy), and eluted at different mobile phase compositions (0.05 increments of MeOH volume fraction in 10 mM ammonium formate buffer at pH 4.5, ranging ϕ between 0.85 and 0.30). All RP-HPLC measurements were carried out at 25 ± 1 °C, at a flow rate of 1.0 mL/min, and at 254 nm wavelength.
The logarithm of capacity factors (log k′ = log (tR − t0)/t0) of each compound at different mobile phase compositions have been calculated; tR represents the retention time of the solute and t0 is the column dead time, measured as the elution time of a KNO3 solution in MeOH. For each compound, the log k′ values increased linearly with decreasing MeOH volume fraction. Logarithms of capacity factors extrapolated to the 100% aqueous mobile phase (log k′w) were calculated from the linear regressions on at least five data points (r^2 > 0.975).

AChE = tested on: AChE; design: method as in PMID 28801274; details: read-out: IC50 AChE inhibition; cited from earlier work
[4] = design: method as in PMID 28801274; details: Tris/HCl buffer, pH 7.4 at 25 °C; cited from earlier work
Aβ40 peptide [5] = biological target: T1, Aβ40 peptide; design: method as in PMID 21144622; details: read-out: IC50 inhibition of Aβ40 aggregation; hit compound, previously reported; cited from earlier work
Aβ42 peptide = Aβ42 peptide (Homo sapiens, UniProt P05067); test: Kinetics of Aβ42 fibrillization (ThT fluorescence and CD); format: biochemical; details: 50 µM Aβ42 with 20 µM compound, PBS 2% ethanol, 37 °C, after one week
Experimental: For ThT and circular dichroism (CD) time-course measures of Aβ aggregation (50 µM), alone or in the presence of 28 (20 µM), samples were prepared in PBS containing 2% v/v ethanol as the cosolvent, and incubated at 37 °C. Aβ42 peptide was preferred, being the principal responsible of amyloid burden in AD brain. Kinetics of amyloid aggregation of Aβ42 was followed by means of ThT fluorescence and CD absorption. In the latter case, we monitored the increase of the negative band at 215 nm, probing the random coil to β-sheet transition in folding peptide. Results depicted in Figure 4 show a fast fibrillization of self-aggregating peptide (dotted black line), with fibrils already detectable in large amount in the first 48 h of incubation.
as §1

[6] = Aqueous solubility in Tris/HCl buffer; format: physicochemical; details: pH 7.4 at 25 °C
Text: Based on data in Table 1, Table 2, Table 3, Table 4 and Table 5, compound 28 was selected for further biological and biophysical studies, aimed at elucidating the mechanism of disruption of Aβ aggregation, and evaluating the activity in biochemical assays related to neurodegeneration, and cytoprotection in a cell model of Aβ toxicity. Starting from the evidence that a bulky substituent led to a net improvement of antiaggregating activity (Table 5), we chose the N^1-cyclopropyl derivative 28 as the best compromise between in vitro activity and aqueous solubility.

SH-SY5Y cells [7] = test: Antioxidant activity, H2O2-induced ROS production, DCFH-DA assay; format: cell-based; details: Homo sapiens, 20 µM compound, 100 µM hydrogen peroxide, read-out: ROS scavenging, maximum effect relative to effect of 100 µM quercetin
Experimental: (§2) Protection from Aβ42-induced cytotoxicity was measured for compound 28 in a conventional cell-based assay, measuring cell viability by means of MTT reduction. Antioxidant activity of 28 was assessed in an H2O2-induced oxidation cell model. Reactive oxygen species (ROS) production was detected by means of a spectrofluorometric measure of the fluorescent probe 2′,7′-dichlorofluorescein (DCF), formed by oxidation of 2′,7′-dichlorodihydrofluorescein (DCFH). In both assays, human SH-SY5Y neuroblastoma cell line was used.
Intracellular ROS production was evaluated using an oxidation-sensitive fluorescent probe, 2′,7′-dichlorodihydrofluorescin diacetate (DCFH-DA; Sigma-Aldrich). Viable SHSY5Y cells were seeded in a black 96-well cell culture plate for 24 h, then the cells were incubated in DMEM supplemented with different concentration (0 to 20 μM) of 28 for 1 h. After washing, DCFH-DA (50 μM final concentration) was added directly to each well, and the plate was incubated at 37 °C in 5% CO2 for 0.5 h. […] The formation of fluorescent dichlorofluorescein (DCF) due to oxidation of DCFH in the presence of ROS was read directly in each well at an excitation wavelength of 485 nm and an emission wavelength of 530 nm using a multilabel plate reader Victor3 V (Perkin Elmer), with DMSO medium as the control.

SH-SY5Y cells [8] = test: Protection from Aβ42-induced cytotoxicity, MTT assay; format: cell-based, human; details: 5 µM Aβ42 co-incubated with equimolar 5 µM compound, within two days
Experimental: as §2
Cytoprotection from Aβ42-induced neurotoxicity and from ROS generation was assessed in SH-SY5Y cells as already described. At least three independent experiments with six replicates (n ≥ 18) were carried out, and the results were averaged. Briefly, for MTT assay, SH-SY5Y cells were cultured in DMEM-Dulbecco’s modified Eagle’s medium (Sigma-Aldrich), grown to 70% confluence and seeded for experiment in 96-well plates at a density of 10,000 cells/well. Cultured cells were added with a DMEM solution of Aβ42, alone or in mixture with 28 (5 μM final concentration of both) and incubated at 37 °C in 5% CO2. […] After removal of solution and addition of DMSO, the absorbance of product formazan produced from MTT was measured at 570 nm using a multilabel plate counter Victor3 V (Perkin Elmer, Milan, Italy), with DMSO medium as the blank solution.

T1 sequence (P05067 672-711 limits assumed): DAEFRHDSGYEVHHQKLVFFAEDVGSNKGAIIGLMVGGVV
Chain of Aβ42 peptide (P05067 672-713 limits assumed): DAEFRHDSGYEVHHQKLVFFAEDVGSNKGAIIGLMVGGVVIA

Row | Structure (SMILES) | IC50 (Aβ40 peptide [1]; Aβ40 aggregation inhibition, read-out: pIC50, Aβ antiaggregating potency (converted)) [nM] | half-life [2] [h] | log k'w [3] | IC50 (AChE) [nM] | solubility [4] [µM] | IC50 (Aβ40 peptide [5]) [nM] | IC50 (Aβ40 peptide [1]) [nM] | fibril content compared with that of control peptide (Aβ42 peptide) | solubility [6] [µM] | Emax at 20 µM (SH-SY5Y cells [7]) [%] | cell viability (MTT reduction) (SH-SY5Y cells [8])
1 | COc1ccc2c(c1)/C(=N/Nc1ccc(C(C)C)cc1)C(=O)N2 [Compound 1, (3Z)-5-methoxy-1H-indole-2,3-dione 3-[(4-isopropylphenyl)hydrazone]] | 398 | 24 | 5.44 | 6250 | 71 (≈ 22 µg/mL) | 430 ± 40 | – | – | – | – | –
2 | COc1ccc2c(c1)/C(=N/Nc1ccc(C(C)C)cc1)C(=O)N2C1CC1 [Compound 28, (Z)-1-Cyclopropyl-3-(2-(4-isopropylphenyl)hydrazono)-5-methoxyindolin-2-one] | – | – | 6.36 | – | – | – | 800 ± 130 | about 30% | 21 (≈ 7.34 µg/mL) | ~50 | fully viable
